Read-outs that look alike come from different tables or passages of the source.
Assays:
KDM5 enzymes [1] = experiment: Enzymatic inhibition assay (Epigenase JARID Demethylase Activity/Inhibition Assay Kit, fluorometric); assay type: biochemical; settings: in vitro, toward KDM5 enzymes; This work
Protocol: Inhibition by RS5033 (IC50) was determined by the Epigenase™ JARID Demethylase Activity/Inhibition Assay Kit (Fluorometric) (#P-3083-48 Epigentek, Farmingdale, NY, USA) which is a complete set of optimized reagents, designed for an easy and fast fluorometric measurement of JARID activity or inhibition. The antibody-based, immune-specific method directly detects JARID-converted demethylated products, rather than by- products, in a 96 stripwell microplate format.

[2] = tested on: H3K4me3 levels in MCF-7 cells; experiment: Western blotting of H3K4me3 levels in bulk chromatin; assay type: cell-based, human; settings: MCF-7 bulk chromatin, 1 μM, 10 μM and 30 μM, 24 h, vs DMSO
Protocol: (§1) Histone isolation was performed according to acid extraction of histones protocol of Shechter and colleagues. Histone concentration was determined by running 5 μL of samples and known concentrations of commercially available purified calf thymus histones (from Sigma Aldrich Cat. #000000010223565001) on a SDS-PAGE gel. The gel is stained with Coomassie blue G 250 (BIO-RAD Cat. #161-0786) for 1 hour at room temperature and then destained in distilled water. The gel image is acquired with ChemiDoc XRS+ Imaging System (Bio-Rad, Hercules, CA, USA) and the volumes of bands of the samples are compared to standard concentrations of calf thymus histone.
(§2) Proteins were resolved on a 12% (histones) or 5% (JARID1B) denaturing polyacrylamide gel, using either 4 μg of histone preparation or 40 μg of cell lysate. After electrophoresis, proteins were transferred on a nitrocellulose membrane (Protran™ […] NC, # 10600002, GE Healthcare (Amersham™), Chicago, IL, USA) via wet transfer method using a Bio-Rad tank. Transfer efficiency was verified via ponceau staining (#P7767, Sigma-Aldrich). Filters were blocked with either milk (#70166, Sigma-Aldrich) or bovine serum albumin (#A3069, Sigma-Aldrich) and then hybridized over night at 4 °C in gentle rotation with the following antibodies: rabbit anti-H3K4me3 (1:1000, #39915, Active Motif, RRID:AB_2687512); rabbit-anti-H3K27me3 (1:1000, #9733, Cell Signaling Technology, RRID:AB_2616029); rabbit-anti- H3K9pan-methylated (1:1000, #4473, RRID:AB_10544693); rabbit-anti-H3 ([…], Cat#1791, ABCAM, RRID:AB_302613); rabbit anti-H2AX (1:1000, Cat#7631, Cell Signaling Technology, RRID:AB_10860771), rabbit anti-Phospho-H2AX (1:1000, Cat#9718, Cell Signaling Technology, RRID:AB_2118009), rabbit anti-JARID1B (1:50, Cell Signaling Technology, Cat#3273 RRID: AB_1264191). Goat-anti-Rabbit Horseradish Peroxidase conjugated (1:10,000, #31460, Thermo Fisher Scientific, Waltham, MA, USA RRID:AB_228341) was used as secondary antibody for 1 hour hybridization at room temperature. Blots were scanned and analyzed with a ChemiDoc XRS+ Imaging System (Bio-Rad). The volumes of each band of protein was acquired using Bio-Rad’s ImageLab software by means of volume tools using global quantification. The signal for each protein was normalized to the housekeeping protein and ratios with average control values were determined. For histones as loading control was used either total histone H3 detected by a specific antibody or histone H1 levels by staining the upper part of the gel properly cut before protein transfer on nitrocellulose membrane.

[3] = tested on: pan-methyl-H3K9 levels in MCF-7 cells; experiment: Western blotting of pan-methyl-H3K9 levels; assay type: cell-based, human; settings: MCF-7, 24 h, three concentrations (1, 10, 30 μM)
Protocol: as §1
(§3) Proteins were resolved on a 12% (histones) or 5% (JARID1B) denaturing polyacrylamide gel, using either 4 μg of histone preparation or 40 μg of cell lysate. […] Blots were scanned and analyzed with a ChemiDoc XRS+ Imaging System (Bio-Rad). The volumes of each band of protein was acquired using Bio-Rad’s ImageLab software by means of volume tools using global quantification. The signal for each protein was normalized to the housekeeping protein and ratios with average control values were determined. For histones as loading control was used either total histone H3 detected by a specific antibody or histone H1 levels by staining the upper part of the gel properly cut before protein transfer on nitrocellulose membrane.

[4] = tested on: H3K27me3 levels in MCF-7 cells; experiment: Western blotting of H3K27me3 levels; assay type: cell-based, human
Protocol: as §1, §3

[5] = tested on: γ-H2AX levels in MCF-7 cells; experiment: Western blotting of H2AX phosphorylation after irradiation; assay type: cell-based, human; settings: RS5033 10 μM, KDOAM-25 0.03 μM
Protocol: as §2

MCF-7 cells [6] = experiment: RNA-seq differential gene expression; assay type: cell-based, human; settings: MCF-7 treated with RS3195 10 μM
MCF-7 cells [7] = experiment: COMET assay (DNA damage); assay type: cell-based, human; settings: MCF-7, sham-irradiated, 3 μM
Protocol: To test if the cytotoxic effects of KDM5 inhibitors on MCF-7 cells were related to an increase of DNA damage accumulation, we collected cells treated with the three KDM5 inhibitors or DMSO-treated control cells after one hour from irradiation with 3 Gy of ionizing radiation (or sham-irradiation). We then performed COMET assays to assess DNA damage.
The COMET assay was performed using the OxiSelect™ 96-Well Comet Assay Kit (Cell Biolabs, Inc., San Diego, CA, USA) following the manufacturer’s instruction manual (https://www.cellbiolabs.com/sites/default/files/STA-355-comet-assay-kit.pdf).

KDM5 enzymes [8] = settings: cited from earlier work
HeLa cells = tested on: HeLa cells; parameters: method as in PMID 24489688; settings: without affecting methylation of other lysins; cited from earlier work

| IC50 (KDM5 enzymes [1]) | log2FoldChange CYP1A1 (MCF-7 cells [6]; gene CYP1A1) | log2FoldChange CYP1B1 (MCF-7 cells [6]; gene CYP1B1) | SMILES | H3K4me3 levels [2] | H3K4me3 levels ([2]; listed as RS 5033) | H3K9me3 (pan-methyl-H3K9) levels [3] | H3K27me3 levels ([4]; MCF-7, 24 h, three concentrations (1, 10, 30 μM)) | decrease of H3K27 tri-methylation ([4]; MCF-7, highest concentration of inhibitor) | ɤH2AX increase normalized to the amount of H2AX ([5]; MCF-7, 6 Gy, 4-36 h) | amount of ɤH2AX ([5]; MCF-7, sham-irradiated and irradiated (6 Gy) cells) | log2FoldChange AHRR (MCF-7 cells [6]; gene AHRR) | log2FoldChange RPS3A (MCF-7 cells [6]; gene RPS3A) | log2FoldChange TXNRD1 (MCF-7 cells [6]; gene TXNRD1) | cells with comet tail, sham-irradiated (intrinsic genotoxicity) (MCF-7 cells [7]) | inhibition of KDM5B and KDM5D activity in vitro (KDM5 enzymes [8]) | IC50 (KDM5 enzymes [8]; in vitro, toward KDM5 enzymes, ref Mannironi et al. [36]) | H3K4 demethylation in HeLa cells (HeLa cells) |
| --- | --- | --- | --- | --- | --- | --- | --- | --- | --- | --- | --- | --- | --- | --- | --- | --- | --- |
| 1000 nM |  |  | CCOC(=O)c1ccccc1C(=O)c1cccc(NS(=O)(=O)c2ccc(OC)cc2)c1 [RS5033] | more remarkable and significant increase of H3K4me3 | strong and significant increase | not affected | decrease | about two-fold | statistically significant at 4 h and 24 h | increases |  |  |  |  |  |  |  |
|  | 7.446 | 3.42 | CCOC(=O)c1cccn1C(=O)c1cccc(NS(=O)(=O)c2ccc(OC)cc2)c1 [RS3195] | slight increase |  |  |  |  |  |  | 2.438 | 2.088 | 1.608 | strong effect | selectively inhibit | 2000 nM | decrease H3K4 demethylation |

Reference: PMC6540222, “Small Molecule Inhibitors of KDM5 Histone Demethylases Increase the Radiosensitivity of Breast Cancer Cells Overexpressing JARID1B” (Molecules, 2019)
